Results reported in article PMC7269486, “MK-571, a Cysteinyl Leukotriene Receptor 1 Antagonist, Inhibits Hepatitis C Virus Replication” (Antimicrobial Agents and Chemotherapy, 2020).
Values joined by “and” are separate entries in the source; they are usually repeats but may differ in a detail not shown here. Equal values may be shown once. “Also recorded” adds a separate entry of the source. Read-outs that look alike come from different tables or passages of the source.

Tests used:
[1] = system: HCV genotype 1b subgenomic replicon; test: Anti-HCV activity in the subgenomic replicon model (HCV-SGR RNA by RT-qPCR in Huh7.5-SGR cells); type: cell-based, Hepatitis C virus; settings: for effect on the anti-HCV activity of MK-571: compound added to MK-571 (10 or 50 μM); for effect on the anti-HCV activity of MK-571 / effect on HCV-SGR RNA levels / replication: increasing concentrations; for effect on HCV-SGR RNA levels / replication: compound alone; for effect of MRP-1 inhibitor on MK-571 anti-HCV activity: added to MK-571 (probenecid 1 mM), data not shown
Experimental: Plasmid I389-Neo/NS3-3′/5.1, which contains a neomycin resistance gene and an HCV genotype 1b subgenome, was kindly provided by Ralf Bartenschlager (University of Heidelberg, Heidelberg, Germany). This plasmid was transfected into Huh7.5 cells to generate Huh7.5-SGR cells stably harboring an HCV genotype 1b subgenomic replicon (SGR).
Huh7.5 cells stably harboring an HCV genotype 1b bicistronic replicon (I389-Neo/NS3-3′/5.1) were seeded at the density of 5,000 cells/well in a 96-well plate. The cells were treated for 48 h with the tested compounds diluted in complete DMEM containing 1% dimethyl sulfoxide (DMSO) with 0.5 mg/ml of G418. Total RNA was extracted using the RNeasy 96 kit (Qiagen, Hilden, Germany). HCV-SGR RNA levels were measured by reverse transcriptase quantitative PCR (RT-qPCR) using the TaqMan technology with HCV-specific primers (forward primer, 5′-CGC CCA AAC CAG AAT ACG A-3′; and reverse primer, 5′-AGATAGTACACCCTTTTGCCAGATG-3′) and a qPCR probe (5′-6-carboxyfluorescein [FAM]-CAA TGT GTC AGT CGG-6-carboxytetramethylrhodamine [TAMRA]-0.3′). The data were analyzed with the 2^−ΔΔ^CT method, with all samples normalized to glyceraldehyde-3-phosphate dehydrogenase (GAPDH) mRNA. All experiments were performed in triplicate. HCV-SGR RNA relative quantities were plotted against compound concentrations and fitted with a four-parameter logistic curve with SigmaPlot v11 software. EC50s were determined from the curves.

[2] = Cytotoxicity assay (CellTiter 96 AQueous One); type: cell-based; settings: human
Experimental: Assessment of the compound cytotoxicity was performed with the CellTiter 96 AQueous One assay (Promega), according to the manufacturer’s instructions. Huh7.5 cells were seeded at a density of 5,000 cells/well in a 96-well plate and incubated 24 h before addition of increasing concentrations of the indicated compounds. After 48 h, cells were incubated 4 h in the presence of the CellTiter 96 AQueous One solution reagent, and absorbance was measured at 490 nm.

[3] = system: HCV-J6/JFH1 (genotype 2a/2a full-length infectious model); test: Antiviral activity in the HCV infectious model (luciferase reporter); type: cell-based, Hepatitis C virus; settings: Huh7.5 cells infected with J6/JFH1, increasing concentrations, 48 h after infection
Experimental: The anti-HCV activity of MK-571 was then confirmed in a chimeric genotype 2a/2a HCV full-length infectious model (HCV-J6/JFH1) containing a luciferase reporter gene. Huh7.5 cells were infected with HCV-J6/JFH1 in the presence of an increasing concentration of MK-571, and luciferase activity was quantified 48 h after infection. […] However, MK-571 anti-HCV activity appeared higher in the genotype 1b HCV-SGR than the genotype 2a HCV full-length infectious model (Fig. 2D).
Huh7.5 cells were incubated 24 h before infection. Then, cells were infected with HCV (J6/JFH1 strain) at an mutiplicity of infection (MOI) of 0.2 during 8 h in the presence of drugs. HCV-infected cells were washed with phosphate-buffered saline (PBS) and incubated for 48 h in fresh medium containing the drugs. Then, luciferase activity was measured and plotted against compound concentrations.

[4] = system: Huh7.5-SGR cells harboring HCV-SGR with neomycin resistance gene; type: cell-based, Hepatitis C virus; settings: 100 μM MK-571, 2 weeks, no G418
Description: FIG 2 Anti-HCV activity of MK-571. (A) Dose-response curve and (B) fold decrease of MK-571 antiviral activity in Huh7.5 cells stably expressing an HCV genotype 1b subgenomic replicon. Data are shown as means ± SD from at least two independent experiments performed in triplicate. […]
We next examined HCV-SGR clearance during 2 weeks of treatment with MK-571. […]

[5] = Huh7.5 cells, 48 h, read-out: CC50 in Huh7.5 cells

Compound	effect on the anti-HCV activity of MK-571 ([1]; Huh7.5-SGR cells)	effect on HCV-SGR RNA levels / replication ([1]; Huh7.5-SGR cells)	CC50 at 48 h [2, 5]	other results
CCC(CC)(CC(=O)Nc1cccc(/C=C/c2nc(C3CCC3)cs2)c1)C(=O)O [Cinalukast]	completely reversed its antiviral effect; also recorded: full reversion achieved at the highest dose tested	modest proviral effect on HCV RNA replication	> 100 µM	–
CCCCC/C=C\C\C=C/C=C/C=C/[C@@H](SC[C@H](N)C(=O)NCC(=O)O)[C@@H](O)CCCC(=O)O [LTD4]	completely reversed its antiviral effect; also recorded: reversed the antiviral effect of 50 μM of MK-571 in a dose-dependent manner	did not exert any effect on HCV replication	–	concentration achieving complete reversion of the antiviral effect of MK-571 ([1]; in the presence of 50 μM MK-571, Huh7.5-SGR cells): 1 µM
CN(C)C(=O)CCSC(SCCC(=O)O)c1cccc(/C=C/c2ccc3ccc(Cl)cc3n2)c1 (stereo not shown) [MK-571]	–	–	> 100 µM	fold decrease of HCV-SGR RNA levels ([1]; 50 μM MK-571 alone, Huh7.5-SGR cells): 12 fold and ~11 fold; fold increase of the anti-HCV effect of telaprevir ([1]; 50 μM MK-571 in combination with 1 μM telaprevir, Huh7.5-SGR cells): approximately 3 fold; antiviral effect compared with telaprevir ([1]; 50 μM MK-571 vs 1 μM telaprevir, Huh7.5-SGR cells): equivalent to the effect of 1 μM of telaprevir; EC50 ([1]; Hepatitis C virus, Huh7.5, 48 h, read-out: EC50 for decrease of HCV-SGR RNA): 9 ± 0.3 µM; maximum HCV RNA level reduction ([1]; Huh7.5-SGR cells, genotype 1b replicon): ~1 log10; effect on HCV-J6/JFH1 replication (luciferase activity) [3]: dose-dependent decrease of HCV-J6/JFH1 RNA replication; also recorded: reduced the replication of the HCV full-length J6/JFH1 model in a dose-dependent manner; cell growth in the absence of G418 [4]: cell growth was not significantly affected
CC(C)c1ccc2c(c1)c(SC(C)(C)C)c(CC(C)(C)C(=O)O)n2Cc1ccc(Cl)cc1 [MK-886]	–	None of them affected HCV-SGR replication	–	–
O=C(O)c1ccccc1Nc1cccc(OCc2ccc3ccccc3n2)c1 [SR2640]	completely reversed its antiviral effect; also recorded: not only reversed its anti-HCV activity but also increased HCV replication at the highest concentrations tested	increased HCV-SGR RNA levels in a dose-dependent manner	33.4 ± 3.9 µM	maximum increase of HCV-SGR RNA levels ([1]; SR2640 alone, at 20 μM, Huh7.5-SGR cells): 11 fold
CCC[C@H](NC(=O)[C@@H]1[C@H]2CCC[C@H]2CN1C(=O)[C@@H](NC(=O)[C@@H](NC(=O)c1cnccn1)C1CCCCC1)C(C)(C)C)C(=O)C(=O)NC1CC1 [Telaprevir]	–	–	–	CC50 at 48 h [2]: > 20 µM
COc1cc(C(=O)NS(=O)(=O)c2ccccc2C)ccc1Cc1cn(C)c2ccc(NC(=O)OC3CCCC3)cc12 [Zafirlukast]	completely reversed its antiviral effect; also recorded: full reversion achieved at the highest dose tested	modest proviral effect on HCV RNA replication	> 100 µM	–
CCCN(CCC)S(=O)(=O)c1ccc(C(=O)O)cc1 [probenecid]	–	–	–	effect of MRP-1 inhibitor on MK-571 anti-HCV activity [1]: did not modify its anti-HCV activity; also recorded: lack of effect on MK-571 antiviral activity; effect on HCV-SGR RNA levels ([1]; probenecid 1 mM alone, Huh7.5-SGR cells): had no effect on HCV replication; also recorded: none of these two compounds reduced HCV-SGR RNA levels; also recorded: lack of anti-HCV activity
CC(c1cc2ccccc2s1)N(O)C(N)=O (stereo not shown) [zileuton]	–	None of them affected HCV-SGR replication	–	–
apigenin homodimer [APN]	–	–	–	effect of MRP-1 inhibitor on MK-571 anti-HCV activity [1]: lack of effect on MK-571 antiviral activity; effect on HCV-SGR RNA levels ([1]; apigenin homodimer 0.1 μM alone, Huh7.5-SGR cells): had no effect on HCV replication; also recorded: none of these two compounds reduced HCV-SGR RNA levels; also recorded: lack of anti-HCV activity
